The record followed here is PubChem BioAssay AID977621 (Broad Institute, 2014).

This experiment concerns E. coli wild-type GFP strain growth, fluorescence, 24 h. Briefly: growth inhibition of wild-type GFP E. coli, dose response, H69 mutant RFP, cherry-pick (AID 977621).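 Also: wild-type GFP and H69 mutant RFP strains grown together 50/50 in each well.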
Where [1] appears, read: E. coli mixed culture, 24 h, measured here: total growth OD600, test 2.

Results filed as inconclusive are left out. Activity calls are given as the source filed them.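 The calls were made as follows: active = Wild-type ribosome reporter drop at least double the humanized mutant ribosome reporter drop, growth loss under a set limit; inconclusive = no clear call, values can overlap the other calls; inactive = the rest.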

One may read the AC50 as the midpoint of the concentration-response curve, whichever way the signal moves. For the molecule `Cc1cc(NC(=O)CN2CCN(c3cccc(Cl)c3)CC2)no1`, the AC50 was > 100 µM (inactive). Consider `CCOc1ccccc1OCCCC(=O)N1CCN(S(=O)(=O)c2cc(F)ccc2F)CC1`, for which the AC50 was > 100 µM (inactive). For `O=S(=O)(c1ccccc1)N1CCN=C1SCc1cccc(Cl)c1`, the AC50 was > 100 µM (inactive). For the same molecule, the AC50 under setting [1] came to 35.9 µM.

As for `COc1ccc(C2=Nc3ccccc3NC(=O)C2N(C(=O)c2ccnc3ccccc23)c2ccccc2)cc1` (configuration not stated), the AC50 was > 100 µM (inactive). The molecule further came in with an AC50 under setting [1] of 34 µM. Turning to `CC(=O)c1cccc(NC(=O)COC(=O)C2CCCN2C(=O)c2cccs2)c1` (configuration not stated), the AC50 is > 100 µM (inactive). Turning to `Cc1ccccc1OCC(O)Cn1c(NCc2ccco2)nc2c1c(=O)n(C)c(=O)n2C` (configuration not stated), the AC50 was > 100 µM (inactive). The same molecule returned an AC50 under setting [1] greater than 100 µM. With `COc1cccc(NC(=O)C2CCC(CNS(=O)(=O)c3cccs3)CC2)c1` (configuration not stated), the AC50 was > 100 µM (inactive). On to `Cc1cc2nc(-c3ccc4c(c3)CCC4)ccn2n1`, for which the AC50 was > 100 µM (inactive). Besides, under setting [1], the AC50 was greater than 100 µM. Molecule `COc1cc(OC)c(NS(=O)(=O)c2cccc(C(=O)OCC(=O)NCC3CCCO3)c2)cc1Cl` (configuration not stated) came in with an AC50 under setting [1] greater than 100 µM. On to `c1ccc(Cc2nc3ccccc3s2)cc1`, for which the AC50 is > 100 µM (inactive). The AC50 under setting [1] was greater than 100 µM. For `COc1ccc(Cn2c(=O)c3[nH]cnc3n(-c3ccc(C)cc3)c2=O)cc1`, the AC50 is > 100 µM (inactive).

In the case of `CC(NC(=O)C12CC3CC(C)(CC(C)(C3)C1)C2)c1ccncc1` (configuration not stated), the AC50 under setting [1] is greater than 100 µM. Under setting [1], `O=C(CSCc1c(Cl)cccc1Cl)NCc1ccccn1` had an AC50 greater than 100 µM.

Take `CN(CCOc1ccccc1)C(=O)c1ccc(OC2CCN(C(=O)C3CC3)CC2)cc1`: the AC50 is > 100 µM (inactive). As to `CCc1ccc2nc(N(CCCN(C)C)C(=O)c3ccc4c(c3)OCCO4)sc2c1`, the AC50 was > 100 µM (inactive).

For the molecule `CCCCc1cc2c(cc1NC(=O)CN1CCCCC1)OCCO2`, the AC50 is > 100 µM (inactive). This molecule showed an AC50 under setting [1] greater than 100 µM. With `Cc1ccc(CSCC(=O)N(C)CC(=O)Nc2ccccc2Cl)cc1`, the AC50 was > 100 µM (inactive).

With `CCOc1ccccc1N1CC(C(=O)Nc2cccc(S(=O)(=O)N3CCCCC3)c2)CC1=O` (configuration not stated), under setting [1], the AC50 is greater than 100 µM. As for `COc1ccc(NC(=O)Nc2cccc3c2O[C@H](CN(C)S(=O)(=O)c2ccc(Cl)cc2)[C@H](C)CN([C@@H](C)CO)C3=O)cc1`, the AC50 is > 100 µM (inactive). Further, under setting [1], the AC50 was 6.44 µM. Turning to `CCC(C(=O)NC1CCCC1)n1c(-c2ccnc3ccccc23)nc2ccccc21` (configuration not stated), under setting [1], the AC50 is greater than 100 µM. As to `Cc1noc(C)c1NC(=O)Nc1ccc2c(c1)C(=O)N([C@H](C)CO)C[C@H](C)[C@@H](CN(C)C(=O)Nc1ccc3c(c1)OCO3)OCCCC[C@@H](C)O2`, the AC50 under setting [1] is greater than 92 µM. For the molecule `COc1ccc(OC)c(NC(=O)c2c3c(nc4ccccc24)CCC3)c1`, the AC50 is > 100 µM (inactive). For `O=C(Nc1ccc2nc3n(c(=O)c2c1)CCCCC3)c1c(F)ccc([N+](=O)[O-])c1F`, the AC50 was > 100 µM (inactive). As to `Cc1ccc(C2(c3noc(CN(C)Cc4cccnc4)n3)CCCC2)cc1`, the AC50 is > 100 µM (inactive).

Under setting [1], `O=C(Cc1cccc(NC(=O)C2CCN(C(=O)C3CCCCC3)CC2)c1)Nc1cccc(C(=O)N2CCCC2)c1` returned an AC50 greater than 100 µM. Same read-out and setting: for `Cc1nnc2sc(SCC(=O)Nc3ccc(Br)cc3)nn2c1=O` the value was greater than 100 µM. Take `CCCC[n+]1ccn(-c2nc3ccccc3nc2[N-]S(=O)(=O)c2cccs2)c1`: the AC50 was > 100 µM (inactive). In addition, the AC50 under setting [1] was greater than 100 µM. On the same counts, the results for `CCNC(=O)C1(C)CCCN(Cc2cccc3ccccc23)C1` (configuration not stated) are > 100 µM (inactive) and greater than 100 µM. Regarding `CN(C)CCCNc1ccc(-c2cc(Nc3cccc(Cl)c3)ncn2)cn1`, the AC50 is > 100 µM (inactive). The molecule further came in with an AC50 under setting [1] greater than 100 µM. Take `Cc1csc2c(N3CCC(C(=O)O)CC3)ncnc12`: the AC50 was > 100 µM (inactive).

In the case of `CC1=CC(C)(C)N(C(=O)CSc2nnc(C)s2)c2ccc(C)cc21`, the AC50 under setting [1] was greater than 100 µM. Under setting [1], `CCc1ccc2nc(SCC(=O)Nc3ccccc3N3CCOCC3)c(C#N)cc2c1` displayed an AC50 greater than 100 µM. On the same count and under the same terms, to `CCOc1ccc2nc(NC(=O)CSc3nc(SC)ns3)sc2c1` belongs greater than 100 µM; to `CSc1ccccc1NC(=O)c1ccccc1N(Cc1ccccc1)S(C)(=O)=O`, greater than 100 µM. With `O=S(=O)(Nc1cccc(-c2ccc(N3CCCCCC3)nn2)c1)c1ccc(F)cc1`, the AC50 is > 100 µM (inactive). Regarding `Cc1cc(C(=O)c2ccc3ccccc3c2)c(C)o1`, the AC50 was > 100 µM (inactive). Consider `CCOc1ccc2[nH]c3c(NCCN(C)C)ncnc3c2c1`, for which the AC50 under setting [1] was greater than 100 µM.

As to `CSc1ccccc1NC(=O)CN(C)CC(=O)c1c(C)[nH]c2ccccc12`, the AC50 was > 100 µM (inactive). The molecule also yielded an AC50 under setting [1] of 46.2 µM. With `COc1ccc(CN(CC(O)COCc2ccccc2)S(=O)(=O)c2ccccc2Br)cc1OC` (configuration not stated), the AC50 was > 100 µM (inactive). This molecule also yielded an AC50 under setting [1] of 28.5 µM. `COc1ccc(C(=O)COC(=O)c2ccccc2O)c(OC)c1`: the AC50 was > 100 µM (inactive). With `C[C@@H]1NS(=O)(=O)c2c(F)cccc2O[C@@H]1c1ccccc1`, the AC50 is > 100 µM (inactive). `O=C(Cc1coc2cc(O)ccc12)N1CCN(S(=O)(=O)c2ccc(Br)cc2)CC1`: the AC50 is > 100 µM (inactive). This molecule registered an AC50 under setting [1] of 42.2 µM. Under setting [1], `CCN(c1ccccc1)S(=O)(=O)c1ccc(Cl)c(C(=O)NCc2ccco2)c1` registered an AC50 of 33.8 µM.

For `COc1cccc(C(=O)N2C[C@@H]3[C@H](c4ccccc42)[C@H](CO)N3Cc2ccccc2Cl)c1`, the AC50 was > 100 µM (inactive). The AC50 under setting [1] was 48.8 µM.

As for `O=C1CSC(c2cccnc2)N1Cc1ccc(Cl)c(Cl)c1` (configuration not stated), the AC50 is > 100 µM (inactive). For the same molecule, the AC50 under setting [1] is greater than 100 µM.

As for `COc1ccccc1C1CCN(C(=O)c2ccco2)CC1`, the AC50 under setting [1] was greater than 100 µM. Consider `N#Cc1ccccc1CSc1nc2ccc(NC(=O)c3ccccc3C(=O)O)cc2s1`, for which the AC50 is > 100 µM (inactive). In the case of `Cc1cc(C(C)(C)C)oc1C(=O)N(CC(=O)NC1CCCC1)c1c(C)cccc1C`, the AC50 is > 100 µM (inactive). The molecule also had an AC50 under setting [1] greater than 100 µM. For the molecule `O=C(CSc1n[nH]c(=O)n1C1CC1)Nc1ccc(Cl)c(Cl)c1`, the AC50 was > 100 µM (inactive). `CCC(=O)N(CCC(c1ccco1)C(C)C)Cc1ccccc1` (configuration not stated): the AC50 is > 100 µM (inactive). Consider `CC(=O)Nc1cccc(NC(=O)CSc2ccc(-c3cccnc3)nn2)c1`, for which the AC50 is > 100 µM (inactive). For the same molecule, under setting [1], the AC50 stood at 48.7 µM. Regarding `Cc1ccc(-c2c[n+](CC(=O)Nc3ccccc3)c3n2CCC3)cc1`, under setting [1], the AC50 was greater than 100 µM.

`O=C(CCc1nc2ccccc2s1)OCC(=O)c1ccc[nH]1`: the AC50 was > 100 µM (inactive).

As for `O=C(C[C@H]1CC[C@H]2[C@@H](COC[C@@H](O)CN2C(=O)Nc2ccc(Cl)cc2)O1)N1CCCCC1`, the AC50 was > 100 µM (inactive). As for `O=C1N[C@@H](Cc2ccccc2)COC(=O)[C@H](Cc2ccc(F)cc2)C/C=C\C[C@H]1CC(=O)N(CCO)Cc1ccccc1`, the AC50 was > 100 µM (inactive).
